Test results: patent US10500193B2, “Combination therapy of HSP90 inhibitors with platinum-containing agents” (SYNTA PHARMACEUTICALS CORP., priority 2011, dated 2019)
pIC50: −log10 of the molar value.

Test system: HCT-116 colorectal cancer cells
Experiment: Cell viability (alamarBlue) assay in HCT-116 cells
Assay type: cell-based, Human
Conditions: 72 hr exposure, four parameter logistic fit
Experimental: Human HCT-116 colorectal cancer cells (CRC) and MDA-MB-231 breast cancer cells were purchased from the American Type Culture Collection (Manassas, Va.) and grown following ATCC recommendations, in the presence of fetal bovine serum (10%), 2 mM L-glutamine and antibiotics (100 IU/ml penicillin and 100 μg/ml streptomycin, Sigma). Cells were maintained at 37° C., 5% CO2 atmosphere.
Cell viability was measured using the alamarBlue assay (Invitrogen). In brief, cells were plated in 96-well plates in triplicate at 5K cells per well and incubated at 37° C., 5% CO2 atmosphere for 24 hr prior to the addition of drug or vehicle (0.3% DMSO) to the culture medium. After 72 hr, 10 μl/well alamarBlue was added to the wells and incubated for an additional 3 hr at 37° C., 5% CO2 atmosphere. Fluorescence ([…]/590EM nM) was measured with a SpectraMax microplate reader (Molecular Devices) and the resulting data were used to calculate cell viability, normalized to vehicle control. […]
Combinations between ganetespib and cisplatin were then performed in HCT-116 cells concurrently based on the IC50 for each agent in matrix format with 54 combination pairs for each drug. The combined drugs, as well as each drug alone, were incubated with the cells for 3 days and the surviving fraction of cells relative to control was determined using the alamarBlue assay.

pIC50 (Homo sapiens)	SMILES	pIC50
~7.49	CC(C)c1cc(-c2nnc(O)n2-c2ccc3c(ccn3C)c2)c(O)cc1O [ganetespib, 3-(2,4-DIHYDROXY-5- ISOPROPYL-PHENYL)-4-(1- METHYL-INDOL-5-YL)-5- HYDROXY-[1,2,4] TRIAZOLE]	–
–	N.N.[Cl][Pt][Cl] [cisplatin]	~5.24
